The results in this text go back to PubChem BioAssay (NCI).

Test systems include A549 NSCLC; U251 CNS; NCI/ADR-RES ovarian; MDA-MB-435; OVCAR-4 ovarian; SK-OV-3 ovarian; SF-539 CNS; SF-268 CNS; UACC-62 melanoma; HL-60(TB) leukemia.
Test in all cases: NCI tumour cell line growth inhibition, 48 h

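These data come from cells grown in 96-well plates and exposed to compound for 48 hours at five concentrations. TGI: concentration producing complete growth inhibition.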

On to `NNc1nncn1N`, for which the TGI is > 100 µM with A549 NSCLC; > 100 µM with U251 CNS; > 100 µM with NCI/ADR-RES ovarian; 36.3 µM in the test with MDA-MB-435; > 96.7 µM with OVCAR-4 ovarian; > 100 µM with SK-OV-3 ovarian. Also, the TGI in the test with SF-539 CNS, with SF-268 CNS, in the test with UACC-62 melanoma and with HL-60(TB) leukemia was > 100 µM each time.

Take `CCc1c(C)c(C#N)c(=S)n(C2OC(CO)C(O)C(O)C2O)c1C` (stereo not given): the TGI in the test on A549 NSCLC, with U251 CNS, with NCI/ADR-RES ovarian, in the test with MDA-MB-435, with OVCAR-4 ovarian and in the test with SK-OV-3 ovarian was > 100 µM in each case. Further, the TGI with SF-539 CNS, in the test with SF-268 CNS, in the test on UACC-62 melanoma and with HL-60(TB) leukemia was > 100 µM each time.

In the case of `CC(C)CNC(=O)Cn1c(-c2ccccc2)cc2ccccc21`, the TGI in the test with A549 NSCLC, with U251 CNS, with NCI/ADR-RES ovarian, in the test on MDA-MB-435, with OVCAR-4 ovarian and in the test on SK-OV-3 ovarian was > 100 µM throughout. The TGI with SF-539 CNS, in the test on SF-268 CNS, in the test with UACC-62 melanoma and in the test on HL-60(TB) leukemia was > 100 µM throughout.

For the compound `CC(=O)c1cc2c(s1)C(=O)c1ccccc1C2=O`, the TGI was 14.6 µM in the test on A549 NSCLC; 17 µM in the test with U251 CNS; 6.17 µM with NCI/ADR-RES ovarian; 2.21 µM in the test with MDA-MB-435; 57 µM in the test with OVCAR-4 ovarian; > 80.3 µM with SK-OV-3 ovarian. Further, the TGI in the test on SF-539 CNS is 8.32 µM; in the test with SF-268 CNS, 16 µM; with UACC-62 melanoma, 7.01 µM; with HL-60(TB) leukemia, > 100 µM.

Turning to `C=CC[C@@]1(C(=O)OC)[C@H](Sc2ccccc2)C1(C)C`, the TGI in the test with A549 NSCLC, with U251 CNS, in the test with NCI/ADR-RES ovarian, in the test with MDA-MB-435, in the test with OVCAR-4 ovarian and in the test on SK-OV-3 ovarian was > 100 µM in each case. Moreover, the TGI in the test on SF-539 CNS was > 100 µM; in the test with SF-268 CNS, > 100 µM; in the test with UACC-62 melanoma it was > 100 µM; with HL-60(TB) leukemia it was 45.8 µM.

For the compound `CSc1cc(N)ccc1N=Nc1ccc(S(N)(=O)=O)cc1`, the TGI in the test with A549 NSCLC is 71.2 µM; in the test on U251 CNS, > 100 µM; with NCI/ADR-RES ovarian, 91.2 µM; in the test on MDA-MB-435, 97.4 µM; in the test on OVCAR-4 ovarian, > 100 µM; in the test on SK-OV-3 ovarian, > 100 µM. Further, the TGI was 93.7 µM in the test on SF-539 CNS, > 100 µM with SF-268 CNS, 32 µM in the test with UACC-62 melanoma and 82.8 µM in the test on HL-60(TB) leukemia.

Take `Cc1c(NC2(C)C(=O)N(/N=C/c3ccccc3)N=C2c2ccccc2)n[nH]c1-c1ccccc1` (stereo not given): the TGI with A549 NSCLC, with U251 CNS, with NCI/ADR-RES ovarian, in the test on MDA-MB-435, in the test with OVCAR-4 ovarian and in the test on SK-OV-3 ovarian was > 100 µM each time. Besides, the TGI in the test with SF-539 CNS, with SF-268 CNS, in the test on UACC-62 melanoma and in the test with HL-60(TB) leukemia was > 100 µM throughout.

For the compound `COC(=O)[C@@H]1C[C@@]2(C3C=CN(C(=O)C(F)(F)F)C=C3)c3ccccc3N(C(=O)C(F)(F)F)[C@H]2N1C(=O)OC`, the TGI with A549 NSCLC, in the test with U251 CNS, in the test with NCI/ADR-RES ovarian, with MDA-MB-435, with OVCAR-4 ovarian and in the test with SK-OV-3 ovarian was > 100 µM in each case. In addition, the TGI with SF-539 CNS, in the test with SF-268 CNS, in the test with UACC-62 melanoma and in the test on HL-60(TB) leukemia was > 100 µM throughout.

Take `COc1c(C)c(OC)c2c(c1O)[C@@H]1[C@@H]3Cc4c(OC)c(C)c(OC)c(O)c4[C@H](CNC(=O)c4cnc5ccccc5n4)N3[C@@H](C#N)[C@H](C2)N1C`: the TGI in the test with A549 NSCLC was > 0.1 µM; with U251 CNS, > 0.0361 µM; in the test with NCI/ADR-RES ovarian, > 0.1 µM; in the test with MDA-MB-435, 0.00622 µM; with OVCAR-4 ovarian it was 0.00898 µM; in the test on SK-OV-3 ovarian, > 0.0445 µM. Moreover, the TGI in the test with SF-539 CNS is 0.0104 µM; in the test on SF-268 CNS, > 0.1 µM; with UACC-62 melanoma it was 0.00346 µM; with HL-60(TB) leukemia, 0.00554 µM.

Regarding `COc1ccc2nc3cc(Cl)ccc3c(NCCNCCCNC(=O)c3cc(-c4ccccc4)nc4ccccc34)c2c1`, the TGI with A549 NSCLC, in the test with U251 CNS, in the test on NCI/ADR-RES ovarian, with MDA-MB-435, in the test on OVCAR-4 ovarian and in the test on SK-OV-3 ovarian was > 100 µM throughout. Also, the TGI in the test with SF-539 CNS, in the test on SF-268 CNS, in the test on UACC-62 melanoma and with HL-60(TB) leukemia was > 100 µM in each case.

Regarding `S=C(S)NCC1CCC(CNC(=S)S)CC1` (stereo not given), the TGI is > 100 µM in the test with A549 NSCLC; 43 µM with U251 CNS; > 100 µM in the test on NCI/ADR-RES ovarian; 61.4 µM with MDA-MB-435; > 100 µM with OVCAR-4 ovarian; > 100 µM with SK-OV-3 ovarian. Also, the TGI in the test on SF-539 CNS, in the test with SF-268 CNS, with UACC-62 melanoma and in the test with HL-60(TB) leukemia was > 100 µM in each case.

For `C/C(O)=C/c1nc2ccc([N+](=O)[O-])cc2nc1/C=C(/C)O`, the TGI in the test with A549 NSCLC, in the test on U251 CNS, in the test on NCI/ADR-RES ovarian, in the test with MDA-MB-435, with OVCAR-4 ovarian and with SK-OV-3 ovarian was > 100 µM in each case. Further, the TGI in the test with SF-539 CNS, in the test with SF-268 CNS, in the test with UACC-62 melanoma and in the test on HL-60(TB) leukemia was > 100 µM each time.

With `Cc1ccc(S(=O)(=O)c2c(O)c3ccccc3n(C)c2=O)cc1`, the TGI in the test with A549 NSCLC, in the test on U251 CNS, with NCI/ADR-RES ovarian, with MDA-MB-435, in the test with OVCAR-4 ovarian and in the test on SK-OV-3 ovarian was > 100 µM in each case. The TGI with SF-539 CNS, with SF-268 CNS, in the test on UACC-62 melanoma and with HL-60(TB) leukemia was > 100 µM each time.

Take `c1ccc2c(c1)nc1n2CCSC1`: the TGI with A549 NSCLC, with U251 CNS, in the test with NCI/ADR-RES ovarian, in the test with MDA-MB-435, in the test on OVCAR-4 ovarian and with SK-OV-3 ovarian was > 100 µM in each case. Also, the TGI in the test on SF-539 CNS, with SF-268 CNS, in the test with UACC-62 melanoma and in the test with HL-60(TB) leukemia was > 100 µM throughout.

For the compound `O=c1[nH]c(Nc2cccc(Cl)c2)nc2nc[nH]c12`, the TGI with A549 NSCLC, with U251 CNS, in the test with NCI/ADR-RES ovarian, with MDA-MB-435, in the test with OVCAR-4 ovarian and with SK-OV-3 ovarian was > 100 µM in each case. Moreover, the TGI in the test on SF-539 CNS, in the test on SF-268 CNS, with UACC-62 melanoma and with HL-60(TB) leukemia was > 100 µM each time.

In the case of `O=C1C(Br)=C(c2ccccc2)S(=O)c2ccccc21` (stereo not given), the TGI in the test with A549 NSCLC was 62 µM; in the test with U251 CNS, 22.8 µM; in the test on NCI/ADR-RES ovarian, > 100 µM; with MDA-MB-435, 19.5 µM; in the test on OVCAR-4 ovarian, 5.86 µM; in the test on SK-OV-3 ovarian it was 32.9 µM. The TGI with SF-539 CNS turned out to be 12.9 µM; with SF-268 CNS, 36.5 µM; with UACC-62 melanoma it was 26.6 µM; in the test on HL-60(TB) leukemia it was 6.63 µM.

In the case of `CC(=O)N1CCN(C23OC4(N5CCN(C(C)=O)CC5)C5C6CC(C7C6C4C72)C53)CC1` (stereo not given), the TGI in the test with A549 NSCLC, with U251 CNS, in the test with NCI/ADR-RES ovarian, in the test with MDA-MB-435, in the test on OVCAR-4 ovarian and with SK-OV-3 ovarian was > 100 µM each time. The TGI in the test with SF-539 CNS, in the test with SF-268 CNS, in the test on UACC-62 melanoma and in the test on HL-60(TB) leukemia was > 100 µM throughout.

With `[N-]=[N+]=Nc1ccc(CNc2cc(=O)[nH]c(=O)[nH]2)cc1`, the TGI in the test with A549 NSCLC is > 100 µM; with U251 CNS it was > 100 µM; in the test with NCI/ADR-RES ovarian, > 100 µM; in the test on MDA-MB-435, > 80 µM; in the test with OVCAR-4 ovarian, > 100 µM; in the test on SK-OV-3 ovarian it was > 100 µM. Moreover, the TGI in the test with SF-539 CNS, with SF-268 CNS, in the test with UACC-62 melanoma and with HL-60(TB) leukemia was > 100 µM each time.

As for `Cc1c2c(OCCCCN3CCN(c4ncccn4)CC3)nn(C)c(=O)c2c(C)n1-c1ccccc1`, the TGI in the test on A549 NSCLC amounted to 40.9 µM; in the test on U251 CNS, 32 µM; in the test on NCI/ADR-RES ovarian, 46.2 µM; in the test with MDA-MB-435, 40.5 µM; in the test on OVCAR-4 ovarian, 39.1 µM; in the test on SK-OV-3 ovarian it was 35.4 µM. In addition, the TGI turned out to be 32.6 µM in the test with SF-539 CNS, 34.3 µM in the test with SF-268 CNS, 31 µM in the test with UACC-62 melanoma and 47.2 µM in the test on HL-60(TB) leukemia.

On to `Cc1ccc(N=Nc2c(C)c(C#N)c(=S)n(C3OC(CO)C(O)C(O)C3O)c2-c2ccccc2)cc1` (stereo not given), for which the TGI is > 100 µM in the test with A549 NSCLC; 30.8 µM in the test on U251 CNS; > 100 µM in the test with NCI/ADR-RES ovarian; 43.8 µM with MDA-MB-435; > 100 µM in the test on OVCAR-4 ovarian; > 100 µM in the test with SK-OV-3 ovarian. The TGI in the test on SF-539 CNS is 48.9 µM; in the test with SF-268 CNS, 68 µM; in the test with UACC-62 melanoma it was 32 µM; in the test on HL-60(TB) leukemia, > 100 µM.
